Results published in patent US20250171434A1, “SEC61 INHIBITORS AND USE THEREOF” (KEZAR LIFE SCIENCES, INC., priority 2022, published 2025).
pEC50, pIC50: −log10 of the molar value. Like-named read-outs stand apart in the source and are kept apart here.

Tests used:
[1] = test system: PD1-ss+10aa/Gaussia Luciferase; assay: Dox-Induced PD1-ss-Gluc Assay; format: cell-based
Text: Flp-In 293 T-REx™ cells were transfected with pcDNA™5/FRT/TO plasmid inserted with cDNA encoding Gaussia Luciferase fused to the 3′ end of cDNA encoding PD1 signal sequence plus 10 amino acids (N-[…]-C) (SEQ ID NO: 1). Transfected cells were selected for resistance to the selectable markers Hygromycin and Blasticidin to create a stable cell line that contained the PD1-ss+10aa/Gaussia Luciferase cDNA insert whose expression was regulated under the T-REx™ system. The day before assay, cells were trypsinized and plated in 384-well tissue culture plates. The next day, compound dilutions in DMSO/media containing doxycycline were added to the wells and incubated at 37° C., 5% CO2.
(§1) For chemical structures that include one or more stereoisomers, but are illustrated without indicating stereochemistry, the assay data refers to a mixture of stereoisomers.

[2] = test system: IL-2-FL/Gaussia Luciferase; assay: Dox Inducible IL2-FL-Gluc Assay; format: cell-based
Text: Flp-In 293 T-REx™ cells were transfected with pcDNA™5/FRT/TO plasmid inserted with cDNA encoding Gaussia Luciferase fused to the 3′ end of cDNA encoding full length IL-2 (amino acids 1-153). Transfected cells were selected for resistance to the selectable markers Hygromycin and Blasticidin to create a stable cell line that contained the IL-2-FL/Gaussia Luciferase cDNA insert whose expression was regulated under the T-REx™ system. The day before assay, cells were trypsinized and plated in 384-well tissue culture plates. The next day, compound dilutions in DMSO/media containing doxycycline were added to the wells and incubated at 37° C., 5% CO2.
as §1

CD47(ss + 10)Gluc = assay: Dox-Induced CD47-ss-Gluc Assay; format: cell-based
[3] = test system: IL6R-ss+10aa/Gaussia Luciferase; assay: Dox-induced IL-6R-ss-Gluc Assay; format: cell-based
Text: Flp-In 293 T-REx™ cells were transfected with pcDNATM5/FRT/TO plasmid inserted with cDNA encoding Gaussia Luciferase fused to the 3′ end of cDNA encoding IL6R signal sequence plus 10 amino acids (N-[…]-C). Transfected cells were selected for resistance to the selectable markers Hygromycin and Blasticidin to create a stable cell line that contained the IL6R-ss+10aa/Gaussia Luciferase cDNA insert whose expression was regulated under the T-REx™ system. The day before assay, cells were trypsinized and plated in 384-well tissue culture plates. The next day, compound dilutions in DMSO/media containing doxycycline were added to the wells and incubated at 37° C., 5% CO2.
as §1

[4] = test system: multiple myeloma cell line NCI-H929; assay: H929 Cell Viability Assay; format: cell-based, human; settings: NCI-H929 cells, 48 hours, Celltiter-Glo; for pEC50: Homo sapiens, read-out: 48 hr H929 Viability Celltiter-Glo: Mean EC50
Experimental: The human multiple myeloma cell line NCI-H929 was cultured in Advanced RPMI 1640 media (Gibco®) supplemented with 6% fetal bovine serum, 2 mM Glutamine, and 1× Penicillin/Streptomycin. On the day of assay, cells were resuspended in RPMI 1640 media supplemented with 10% fetal bovine serum, 2 mM Glutamine, and 1× Penicillin/Streptomycin and plated in 384-well tissue culture plates and treated with compound dilutions in DMSO/media. Plates were incubated at 37° C., 5% CO2 for 48 hours. After 48 hours, Celltiter-Glo® (Promega) was added to each well and luciferase signal was quantified using Tecan Infinite M1000 Pro for cell viability determination.
as §1

[5] = test system: multiple myeloma cell line U266B1; assay: U266 Cell Viability Assay; format: cell-based; settings: Homo sapiens; for pEC50: U-266, U266B1 cells, 48 hours, Celltiter-Glo, read-out: 48 hr U266 Viability Celltiter-Glo: Mean EC50
Experimental: The human multiple myeloma cell line U266B1 was cultured in RPMI 1640 media supplemented with 10% fetal bovine serum, 2 mM Glutamine, and 1× Penicillin/Streptomycin. Cells were plated in 384-well tissue culture plates and treated with compound dilutions in DMSO/media. Plates were incubated at 37° C., 5% CO2 for 48 hours. After 48 hours, Celltiter-Glo® (Promega) was added to each well and luciferase signal was quantified using Tecan Infinite M1000 Pro for cell viability determination.
as §1

[6] = Liver Microsome Stability Assay, mouse; format: in vitro ADME; settings: mouse liver microsomes 1.0 mg/mL, 1.0 uM compound, 37° C., 1 mM NADPH
Experimental: (§2) Stability of a compound was assessed in the presence of liver microsomes from various sources—mouse, rat, monkey and human liver microsomes. 1.0 uM compound, 0.4% DMSO in 0.1 M Potassium Phosphate with 1.0 mg/mL liver microsomes, were incubated at 37° C. with or without 1 mM NADPH. The samples were quenched at 0, and 30 minutes.

[7] = Liver Microsome Stability Assay, rat; format: in vitro ADME; settings: rat liver microsomes 1.0 mg/mL, 1.0 uM compound, 37° C., 1 mM NADPH
Experimental: as §2

[8] = Liver Microsome Stability Assay, monkey; format: in vitro ADME; settings: monkey liver microsomes 1.0 mg/mL, 1.0 uM compound, 37° C., 1 mM NADPH
Experimental: as §2

[9] = Liver Microsome Stability Assay, human; format: in vitro ADME; settings: human liver microsomes 1.0 mg/mL, 1.0 uM compound, 37° C., 1 mM NADPH
Experimental: as §2

[10] = Flp-In 293 T-REx cells, 24 hours with doxycycline; Table 1; read-out: 24 hr Dox Inducible PD1ssGluc 293FRT/TO: Mean IC50
[11] = Flp-In 293 T-REx cells, 24 hours with doxycycline; Table 1; read-out: 24 hr Dox Inducible IL2FLGluc 293FRT/TO: Mean IC50
[12] = ratio of IC50s IL2/PD1; Table 1
[13] = Flp-In 293 T-REx cells, 24 hours with doxycycline; Table 1; read-out: 24 hr Dox Inducible CD47(ss + 10)Gluc 293FRT/TO: Mean IC50
[14] = Flp-In 293 T-REx cells, 24 hours with doxycycline; Table 1; read-out: 24hr Dox Inducible IL6R(ss + 10)Gluc 293FRT/TO: Mean IC50
[15] = ratio of IC50s IL6R/PD1; Table 1

Compound	pIC50 [1, 10]	pIC50 [2, 11]	pIC50 (CD47(ss + 10)Gluc; [13])	pIC50 [3, 14]	pEC50 [4]	pEC50 [5]	Liver Microsome Stability (Multiple Species): Mouse - % Remaining after 30 min w/ NADPH (%) [6]	Liver Microsome Stability (Multiple Species): Rat - % Remaining after 30 min w/ NADPH (%) [7]	Liver Microsome Stability (Multiple Species): Monkey - % Remaining after 30 min w/ NADPH (%) [8]	Liver Microsome Stability (Multiple Species): Human - % Remaining after 30 min w/ NADPH (%) [9]	24 hr Dox Inducible IL2FLGluc 293FRT/TO: IL2/PD1 [2, 12]	24hr Dox Inducible IL6R(ss + 10)Gluc 293FRT/TO: IL6R/PD1 [3, 15]	pIC50 ([1]; read-out: 24 hr Dox Inducible PD1ssGluc 293FRT/TO: Mean IC50; Flp-In 293 T-REx cells, 24 hours with doxycycline; Table 1)	pIC50 ([2]; read-out: 24 hr Dox Inducible IL2FLGluc 293FRT/TO: Mean IC50; Flp-In 293 T-REx cells, 24 hours with doxycycline; Table 1)	pIC50 (CD47(ss + 10)Gluc; read-out: 24 hr Dox Inducible CD47(ss + 10)Gluc 293FRT/TO: Mean IC50; Flp-In 293 T-REx cells, 24 hours with doxycycline; Table 1)	pIC50 ([3]; read-out: 24hr Dox Inducible IL6R(ss + 10)Gluc 293FRT/TO: Mean IC50; Flp-In 293 T-REx cells, 24 hours with doxycycline; Table 1)	48 hr H929 Viability Celltiter-Glo: Mean EC50 (nM) [4]	EC50 ([5]; U-266, 48 h, read-out: 48 hr U266 Viability Celltiter-Glo: Mean EC50 (nM))
CC(=O)N[C@H]1CC[C@@H](/C=C/c2csc(NC(=O)c3cccn3Cc3ccncc3)n2)CC1 [Compound B15, N-(4-((E)-2-((1s,4s)-4-acetamidocyclohexyl)vinyl)thiazol-2-yl)-1-(pyridin-4-ylmethyl)-1H-pyrrole-2-carboxamide]	4.93	< 4.60	< 4.60	< 4.60	< 4.60	< 4.60	2%	1%	<1%	<1%	>2.1	>2	–	–	–	–	–	–
COc1cc(C(=O)Nc2nc(/C=C/c3ncn(C(C)C)c3Cl)c(Cl)s2)n(Cc2ccnc(F)c2)c1 [Compound A6, (E)-N-(5-chloro-4-(2-(5-chloro-1-isopropyl-1H-imidazol-4-yl)vinyl)thiazol-2-yl)-1-((2-fluoropyridin-4-yl)methyl)-4-methoxy-1H-pyrrole-2-carboxamide]	–	–	–	–	–	–	96%	76%	30%	48%	29	28	7.07	5.62	5.66	5.63	I.A	> 25000 nM
N[C@H]1CC[C@H](/C=C/c2csc(NC(=O)c3cccn3Cc3ccncc3)n2)CC1 [Compound B18, N-(4-((E)-2-((1r,4r)-4-aminocyclohexyl)vinyl)thiazol-2-yl)-1-(pyridin-4-ylmethyl)-1H-pyrrole-2-carboxamide]	4.95	< 4.60	< 4.60	5.00	< 4.60	< 4.60	45%	6%	<1%	<1%	>2.2	1	–	–	–	–	–	–
O=C(Nc1nc(/C=C/C2CCC(F)(F)CC2)cs1)c1cccn1Cc1ccnc(F)c1 [Compound B29, (E)-N-(4-(2-(4,4-difluorocyclohexyl)vinyl)thiazol-2-yl)-1-((2-fluoropyridin-4-yl)methyl)-1H-pyrrole-2-carboxamide]	6.95	5.84	6.08	6.04	–	–	–	–	–	–	12.0	8	–	–	–	–	–	–

The remaining compounds from weak to strong by pIC50 [1, 10], led by results:

pIC50 [1, 10]	pIC50 [2, 11]	pIC50 (CD47(ss + 10)Gluc; [13])	pIC50 [3, 14]	pEC50 [4]	pEC50 [5]	Liver Microsome Stability (Multiple Species): Mouse - % Remaining after 30 min w/ NADPH (%) [6]	Liver Microsome Stability (Multiple Species): Rat - % Remaining after 30 min w/ NADPH (%) [7]	Liver Microsome Stability (Multiple Species): Monkey - % Remaining after 30 min w/ NADPH (%) [8]	Liver Microsome Stability (Multiple Species): Human - % Remaining after 30 min w/ NADPH (%) [9]	Compound	24 hr Dox Inducible IL2FLGluc 293FRT/TO: IL2/PD1 [2, 12]	24hr Dox Inducible IL6R(ss + 10)Gluc 293FRT/TO: IL6R/PD1 [3, 15]	pIC50 ([1]; read-out: 24 hr Dox Inducible PD1ssGluc 293FRT/TO: Mean IC50; Flp-In 293 T-REx cells, 24 hours with doxycycline; Table 1)	pIC50 ([2]; read-out: 24 hr Dox Inducible IL2FLGluc 293FRT/TO: Mean IC50; Flp-In 293 T-REx cells, 24 hours with doxycycline; Table 1)	pIC50 (CD47(ss + 10)Gluc; read-out: 24 hr Dox Inducible CD47(ss + 10)Gluc 293FRT/TO: Mean IC50; Flp-In 293 T-REx cells, 24 hours with doxycycline; Table 1)	pIC50 ([3]; read-out: 24hr Dox Inducible IL6R(ss + 10)Gluc 293FRT/TO: Mean IC50; Flp-In 293 T-REx cells, 24 hours with doxycycline; Table 1)	48 hr H929 Viability Celltiter-Glo: Mean EC50 (nM) [4]	EC50 ([5]; U-266, 48 h, read-out: 48 hr U266 Viability Celltiter-Glo: Mean EC50 (nM))
7.30	< 4.60	< 4.60	< 4.60	< 4.60	< 4.60	4%	<1%	<1%	<1%	N#Cc1ccc(/C=C/c2csc(NC(=O)c3cccn3Cc3ccnc(F)c3)n2)nc1 [Compound B13, (E)-N-(4-(2-(5-cyanopyridin-2-yl)vinyl)thiazol-2-yl)-1-((2-fluoropyridin-4-yl)methyl)-1H-pyrrole-2-carboxamide]	>500	>500	–	–	–	–	–	–
7.96	5.93	5.84	5.92	4.92	< 4.60	87%	17%	6%	14%	[2H]C([2H])(c1ccnc(F)c1)n1cc(Cl)cc1C(=O)Nc1nc(/C=C/c2ncn(C3CC3)c2Cl)cs1 [Compound A11, (E)-4-chloro-N-(4-(2-(5-chloro-1-cyclopropyl-1H-imidazol-4-yl)vinyl)thiazol-2-yl)-1-((2-fluoropyridin-4-yl)methyl-d2)-1H-pyrrole-2-carboxamide]	110	112	–	–	–	–	–	–
8.05	5.51	5.59	5.68	4.75	< 4.60	70%	2%	47%	78%	N#Cc1c(/C=C/c2csc(NC(=O)c3cc(OC(F)F)cn3Cc3ccnc(F)c3)n2)ncn1C1CC1 [Compound A27, (E)-N-(4-(2-(5-cyano-1-cyclopropyl-1H-imidazol-4-yl)vinyl)thiazol-2-yl)-4-(difluoromethoxy)-1-((2-fluoropyridin-4-yl)methyl)-1H-pyrrole-2-carboxamide]	340.0	235	–	–	–	–	–	–
